One assay deals with T1, TBL1 (Homo sapiens, UniProt O60907).
T1 construct: full length recombinant human TBL1 or full length recombinant human β-catenin; purchased ABNOVA
T1 sequence (O60907 1-577): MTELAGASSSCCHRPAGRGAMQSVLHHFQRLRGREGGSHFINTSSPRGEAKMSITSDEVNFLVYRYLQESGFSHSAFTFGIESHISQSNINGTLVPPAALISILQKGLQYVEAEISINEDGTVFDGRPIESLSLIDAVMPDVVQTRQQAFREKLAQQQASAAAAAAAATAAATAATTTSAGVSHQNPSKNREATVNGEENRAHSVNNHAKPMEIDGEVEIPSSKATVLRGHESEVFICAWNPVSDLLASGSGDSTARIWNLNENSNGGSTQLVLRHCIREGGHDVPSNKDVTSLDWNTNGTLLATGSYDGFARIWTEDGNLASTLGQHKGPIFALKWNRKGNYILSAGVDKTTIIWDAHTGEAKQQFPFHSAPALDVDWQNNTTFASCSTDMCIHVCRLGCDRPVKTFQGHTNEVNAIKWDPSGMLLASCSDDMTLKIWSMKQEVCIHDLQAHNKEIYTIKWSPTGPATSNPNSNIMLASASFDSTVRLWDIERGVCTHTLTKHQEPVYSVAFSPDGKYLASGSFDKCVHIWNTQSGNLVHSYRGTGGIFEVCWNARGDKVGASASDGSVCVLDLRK
The experiment in a line: TBL1 inhibition (Table 5). It is filed as binding. Here is the method: Briefly, for homologous competitive assay, a single concentration of 50 nM of biotinylated compound was added to the wells containing TBL1 recombinant protein, in the presence of various concentrations of unlinked compound (range of 0.1 nM to 10 μM) diluted in binding buffer. The sealed plate was incubated for 2 h at RT, and then processed as described above. For the heterologous competitive binding assay, 75 nM of β-catenin was used in place of the biotinylated compound, and the bounded protein was detected by anti-β-catenin antibody (Cell Signaling Tech) followed by secondary HRP-conjugated antibody.
To determine whether the ability of BC2059 to interfere with TBL1:β-catenin complex formation is due to direct interaction between TBL1 or β-catenin and the compound, we performed saturation binding assays in a in vitro system. High affinity binding Elisa 96 well plate (Maxisorp, Nunc) was coated with 100 ul to each well of full length recombinant human TBL1 or full length recombinant human β-catenin diluted to a final concentration of 1 ug/ml in carbonate/bicarbonate coating buffer, sealed to prevent evaporation, and incubated O/N at 4° C. After washing the plate 3 times with PBS 0.05% Tween-20, and blocking the plate with 200 μl of PBS 1% BSA each well for 1 h at RT, 100 μl of biotinylated compound was added to each well containing the recombinant proteins, at concentration in the range of 0.1 nM to 10 μM, diluted in binding buffer (50 mM TrisHCl pH 7.4, 10 mM MgCl2). The sealed plate was incubated for 2 h at RT, washed 3 times with PBS 0.05% Tween-20, and then the bounded compound was detected by streptavidin-HRP conjugated antibody (Cell Signaling Tech) diluted in blocking buffer. Elisa was developed by addition of ABTS HRP substrate (SIGMA), and the optical density (OD) for each well was read with a microplate reader set to 405 nm. To validate the saturation binding assay, homologous and heterologous competitive binding experiment were performed in an in vitro system. Briefly, for homologous competitive assay, a single concentration of 50 nM of biotinylated compound was added to the wells containing TBL1 recombinant protein, in the presence of various concentrations of unlinked compound (range of 0.1 nM to 10 uM) diluted in binding buffer. The sealed plate was incubated for 2 h at RT, and then processed as described above. For the heterologous competitive binding assay, 75 nM of β-catenin was used in place of the biotinylated compound, and the bounded protein was detected by anti-β-catenin antibody (Cell Signaling Tech) followed by secondary HRP-conjugated antibody.

For assay [1], the target named is T2, full length recombinant human TBL1 (Homo sapiens, UniProt O60907).
T2 construct: full length recombinant human TBL1 or full length recombinant human β-catenin; purchased ABNOVA
T2 sequence (O60907 1-577): T1 sequence (O60907 1-577)
The experiment in a line: Saturation binding assay with biotinylated compound on coated TBL1. Particulars: biotinylated compound 0.1 nM to 10 μM, 2 h at room temperature; read-out: IC50 of binding to TBL1 at the equilibrium. Here is the method:
(§1) Additionally, Compound 1 can be modified to contain a functional group, such as biotin, capable of being attached to a solid support and test agents identified that disrupt the binding of immobilized Compound 1 to TBL1 protein. High affinity binding Elisa 96 well plate (Maxisorp, Nunc) was coated with 100 μl to each well of full length recombinant human TBL1 or full length recombinant human β-catenin (ABNOVA) diluted to a final concentration of 1 μg/ml in carbonate/bicarbonate coating buffer, sealed to prevent evaporation, and incubated O/N at 4° C. […] The sealed plate was incubated for 2 h at room temperature, washed 3 times with PBS 0.05% Tween-20, and then the bounded compound was detected by streptavidin-HRP conjugated antibody (Cell Signaling Tech) diluted in blocking buffer. Elisa was developed by addition of ABTS HRP substrate (SIGMA), and the optical density (OD) for each well was read with a microplate reader set to 405 nm. […]
(§2) To determine whether the ability of BC2059 to interfere with TBL1:β-catenin complex formation is due to direct interaction between TBL1 or β-catenin and the compound, we performed saturation binding assays in a in vitro system. […] The sealed plate was incubated for 2 h at RT, washed 3 times with PBS 0.05% Tween-20, and then the bounded compound was detected by streptavidin-HRP conjugated antibody (Cell Signaling Tech) diluted in blocking buffer. […]

The target of assay [2] is T3, full length recombinant human β-catenin (Homo sapiens, UniProt P35222).
T3 construct: full length recombinant human β-catenin (ABNOVA); purchased ABNOVA
T3 sequence (P35222 1-781): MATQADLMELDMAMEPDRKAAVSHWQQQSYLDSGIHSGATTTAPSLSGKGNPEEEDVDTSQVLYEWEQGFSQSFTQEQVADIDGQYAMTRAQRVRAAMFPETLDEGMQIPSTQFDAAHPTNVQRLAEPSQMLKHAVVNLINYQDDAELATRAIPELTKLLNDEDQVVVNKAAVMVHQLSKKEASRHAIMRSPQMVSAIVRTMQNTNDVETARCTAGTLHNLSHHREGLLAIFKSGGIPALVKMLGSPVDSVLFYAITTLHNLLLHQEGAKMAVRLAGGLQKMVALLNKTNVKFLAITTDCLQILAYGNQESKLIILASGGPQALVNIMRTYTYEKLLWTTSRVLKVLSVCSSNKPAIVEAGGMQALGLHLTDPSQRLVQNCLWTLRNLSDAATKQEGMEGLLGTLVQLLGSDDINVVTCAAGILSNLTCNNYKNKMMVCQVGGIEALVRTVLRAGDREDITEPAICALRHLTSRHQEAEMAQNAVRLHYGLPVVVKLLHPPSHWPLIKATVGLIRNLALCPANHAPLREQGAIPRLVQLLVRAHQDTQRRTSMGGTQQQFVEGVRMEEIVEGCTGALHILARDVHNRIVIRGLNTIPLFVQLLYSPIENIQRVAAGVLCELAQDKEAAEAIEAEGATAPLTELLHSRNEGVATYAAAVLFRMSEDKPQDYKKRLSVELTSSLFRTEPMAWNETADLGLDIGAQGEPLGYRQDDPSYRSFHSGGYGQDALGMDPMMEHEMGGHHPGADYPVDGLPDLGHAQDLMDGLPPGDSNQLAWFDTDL
The experiment in a line: Saturation binding assay with biotinylated compound on coated β-catenin. Particulars: biotinylated compound 0.1 nM to 10 μM, 2 h at room temperature. On the procedure:
as §1, §2

The target in another assay is T4, TBL1:β-catenin complex (Homo sapiens, UniProt O60907).
T4 construct: endogenous in cells; host or cells: HCT15 (A2 also names HCT116)
T4 sequence (O60907 1-577): T1 sequence (O60907 1-577)
The experiment in a line: Sandwich ELISA capturing the TBL1:β-catenin complex from treated cell lysates. The format is cell-based. Here is the method: HCT 15 cells are incubated with 20 mM LiCl to induce the Wnt pathway. After 24 h fresh medium with 20 mM LiCl and test agent is added at concentration in the range of 0.3 nM to 3 μM for 6 hours at 37° C. Protein lysates are prepared from cells lysed in RIPA buffer containing protease inhibitors, High affinity binding Sandwich Elisa assays were prepared in 96 well Maxisorp plates (NUNC) by coating with 100 μl in each well of unlabeled capture TBL1 antibody (Santa Cruz Biotech) diluted to a final concentration of 2 ug/ml in carbonate/bicarbonate coating buffer, and incubated 18 hours at 4° C. […] The sealed plate was incubated for 2 h at RT, washed 3 times with PBS 0.05% Tween-20, and then the complex and the recombinant protein was detected by antibody against β-catenin (Cell Signaling Tech) and secondary antibody HRP-conjugated (Sigma). Signal was detected by addition of ABTS HRP substrate
(SIGMA), and read with a microplate reader set to 405 nm.
To determine the amount of β-catenin captured, a standard curve was created using recombinant β-catenin (100 fg to 100 ng, Abnova) added instead of cell lysates in the above procedure. Intensity of signal was compared to values generated using test article treated lysates and approximate amount of bound beta catenin determined. […]
A general note: ELISA stands for enzyme-linked immunosorbent assay.

For assay [3], the target named is T5, interaction of β-catenin with TBL1 (Homo sapiens, UniProt O60907).
T5 construct: endogenous in cells; host or cells: HCT15 (A2 also names HCT116)
T5 sequence (O60907 1-577): T1 sequence (O60907 1-577)
The experiment in a line: Immunoprecipitation with TBL1 antibody and Western blot for β-catenin. The format is cell-based. As to conditions: HCT15 cells treated for 6 h, Western blot. Here is the method: FIG. 2 depicts Western blot of an immunoprecipitation using TBL1 antibody. HCT15 cells were incubated with DMSO or indicated concentration of compound for 6 hours. Cell lysates were made and immunoprecipitated with TBL1 antibody. Proteins were separated on an SDS gel, transferred to a membrane and probed with antibodies to β-catenin and to TBL1. Briefly, the HCT15 cell line was seeded at 70% confluence in medium containing 10% FBS and penicillin/streptomycin. After 24 h the cells were treated with Compound 1 for 6 h. Cell lysates were harvested, precleared with protein NG sepharose (Santa Cruz Biotech), and TBL1 was immunoprecipitated using mouse TBL1 antibody (Santa Cruz Biotech) conjugated to protein G sepharose (Santa Cruz Biotech). Immunoprecipitated proteins were resolved on a 10% SDS-PAGE gel followed by transfer of proteins to a nitrocellulose membrane. Western blot analysis was done using antibodies to detect β-catenin protein (BD Transduction Laboratories) and TBL1 protein (Santa Cruz Biotech).
For orientation: In western blotting, separated proteins are transferred to a membrane and probed.

The next assay relates to HCT116 cells. The experiment in a line: Cell screening in HCT116 cells (Table 5). It is filed as cell-based. As to conditions: Homo sapiens, HCT-116.

Structures are written as SMILES.

The values that follow come from patent publication US20130123281A1, “Compositions and Methods for Inhibition of TBL-1 Binding to Disease-Associated Molecules” (BETA CAT PHARMACEUTICALS, LLC, priority 2011, published 2013).

For orientation: EC50 means the concentration at which the effect is half-maximal. In general, IC50 refers to the point on the concentration scale where inhibition reaches its midpoint.

Turning to `CC(C)N(C)Cc1ccc(-c2nc(-c3cccnc3)cc(=O)[nH]2)cc1` [Compound 12, 2-(4-((isopropyl(methyl)amino)methyl)phenyl)-6-(pyridin-3-yl)pyrimidin-4(3H)-one], at TBL1, the midpoint of the response, the EC50, lay at 102 µM.

Consider `C[C@@H]1C[C@H](C)CN(S(=O)(=O)c2ccc3c(c2)C(=NO)c2cc(S(=O)(=O)N4C[C@H](C)C[C@H](C)C4)ccc2C3=NO)C1` [Compound 1], for which the IC50 was 20 nM in assay [1]; 10 to 20 nM on TBL1:β-catenin complex (HCT 15 cells, 20 mM LiCl, test agent 6 hours, read-out: IC50, interference with TBL1 and β-catenin interaction). Also, the “binding to β-catenin” value in assay [2] is “not β-catenin”. Further, the “disruption of the interaction of β-catenin with TBL1” value in assay [3] is reported as “able to disrupt the interaction of β-catenin with TBL1”.

As to `CC(Nc1ncnc2[nH]cnc12)c1cnn(-c2ccccc2F)c1` (stereo not shown) [Compound 15, N-(1-(1-(2-fluorophenyl)-1H-pyrazol-4-yl)ethyl)-9H-purin-6-amine], the EC50 worked out at 0.054 µM at TBL1; 0.41 µM on TBL1:β-catenin complex (compound 0.3 nM to 3 μM for 6 h, cell lysates, read-out: EC50 μM TBL1: β-Catenine); 0.127 µM with HCT116 cells.

In the case of `Cc1ccc(CN(C)Cc2ccc(-c3nc(-c4cccnc4)cc(=O)[nH]3)cc2)o1` [Compound 11], at TBL1, the EC50 was 0.29 µM.

In turn, `CN(Cc1ccncc1)Cc1ccc(-c2nc(-c3cccnc3)cc(=O)[nH]2)cc1` [Compound 10, 2-(4-((methyl(pyridin-4-ylmethyl)amino)methyl)phenyl)-6-(pyridin-3-yl)pyrimidin-4(3H)-one] displayed an EC50 on TBL1 of 0.28 µM.
